Laboratory results published in the NIST ThermoML archive (doi:10.1016/j.jct.2012.11.027).
Numbers after ± are expanded uncertainties.

Assays:
[1] = xn = mol fraction of the nth substance listed; conditions: 101 kPa, Liquid, Linear variable-path acoustic interferometer, x2 = 0
[2] = 101 kPa, Liquid, Linear variable-path acoustic interferometer

SMILES	speed of sound ([1]; 288.15 K) [m/s]	speed of sound ([1]; 293.15 K) [m/s]	speed of sound ([1]; 298.15 K) [m/s]	speed of sound ([1]; 303.15 K) [m/s]	speed of sound ([1]; 308.15 K) [m/s]	speed of sound ([1]; 313.15 K) [m/s]	speed of sound ([1]; 318.15 K) [m/s]	speed of sound ([2]; 288.15 K) [m/s]	speed of sound ([2]; 293.15 K) [m/s]	speed of sound ([2]; 298.15 K) [m/s]	speed of sound ([2]; 303.15 K) [m/s]	speed of sound ([2]; 308.15 K) [m/s]	speed of sound ([2]; 313.15 K) [m/s]	speed of sound ([2]; 318.15 K) [m/s]
CCCCCCCCO [octan-1-ol] + C=CC(=O)OC	1390.2 ± 2	1371.5 ± 2	1352.4 ± 2	1333.1 ± 2	1315.7 ± 2	1298.9 ± 1.9	1282.9 ± 1.9	–	–	–	–	–	–	–
CCCCCCCCCCO [decan-1-ol] + C=CC(=O)OC	1410.6 ± 2	1393.6 ± 2	1377.3 ± 2	1359.8 ± 2	1345.7 ± 2	1326.7 ± 2	1312.1 ± 1.9	–	–	–	–	–	–	–
CCCCCCCCO [octan-1-ol]	–	–	–	–	–	–	–	1390.2 ± 2	1371.5 ± 2	1352.4 ± 2	1333.1 ± 2	1315.7 ± 2	1298.9 ± 1.9	1282.9 ± 1.9
CCCCCCO [hexan-1-ol] + C=CC(=O)OC	1339.2 ± 1.9	1321.2 ± 1.9	1306.9 ± 1.9	1289.5 ± 1.9	1275.7 ± 1.9	1256.3 ± 1.9	1237.5 ± 1.8	–	–	–	–	–	–	–
CCCCO [butan-1-ol] + C=CC(=O)OC	1282.2 ± 1.9	1262.4 ± 1.9	1242.6 ± 1.8	1225.8 ± 1.8	1207.6 ± 1.8	1189.2 ± 1.8	1170 ± 1.8	–	–	–	–	–	–	–
CCCCO [butan-1-ol]	–	–	–	–	–	–	–	1282.2 ± 1.9	1262.4 ± 1.9	1242.6 ± 1.8	1225.8 ± 1.8	1207.6 ± 1.8	1189.2 ± 1.8	1170 ± 1.8
CCCCCCO [hexan-1-ol]	–	–	–	–	–	–	–	1339.2 ± 1.9	1321.2 ± 1.9	1306.9 ± 1.9	1289.5 ± 1.9	1275.7 ± 1.9	1256.3 ± 1.9	1237.5 ± 1.8
CCCCCCCCCCO [decan-1-ol]	–	–	–	–	–	–	–	1410.6 ± 2	1393.6 ± 2	1377.3 ± 2	1359.8 ± 2	1345.7 ± 2	1326.7 ± 2	1312.1 ± 1.9
C=CC(=O)OC [methyl propenoate]	–	–	–	–	–	–	–	1226.6 ± 1.8	1204.6 ± 1.8	1183.6 ± 1.8	1162.2 ± 1.7	1139.1 ± 1.7	1117.8 ± 1.7	1095.7 ± 1.7
